Laboratory results: ChEMBL document CHEMBL2346631, “Thiazolidine-2,4-diones: progress towards multifarious applications” (Bioorg Med Chem, 2013)

Test system: Mus musculus
Assay: Hypoglycemic activity in KKAy mouse assessed as reduction of blood glucose level at 38 mg/kg/day, po relative to control
Type: functional
Design: scale not given: the % may be the effect or the level left

**Q.** Which Activity does the source give for `Cc1oc(-c2ccccc2)nc1CCOc1ccc(CC2C(=O)NOC2=O)cc1` (stereo unspecified) [REGLITAZAR] here?
**A.** The Activity was 25%.
